US8084478B2, “Substituted 5- phenylamino- 1, 3, 4-oxadiazol-2-ylcarbonylamino-4-phenoxy-cyclohexane carboxylic acid as inhibitors of acetyl coenzyme A diacylglycerol acyltransferase” (AsstraZeneca AB, priority 2006, dated 2011)

Legend:
ACAT = ACAT enzyme assay; selectivity for DGAT over ACAT; type: biochemical; conditions: DGAT vs ACAT enzyme assays
Description: 3) The ability of compounds to inhibit ACAT can be measured using a modification of the enzyme assay described in Billheimer (1985) Methods in Enzymology, 111, 286-293. The test assesses the ability of a test compound to inhibit the esterification of cholesterol by measuring the amount of radiolabeled cholesteryl oleate formed from radiolabeled oleoyl CoA. Compound was incubated with 10 μg membrane protein and 267 μM cholesterol. After a 5 minute pre-incubation at 37° C. the reaction was started by adding ^14C oleoyl coenzyme A (50 μM final concentration) and incubated at 37° C. for a further 30 minutes. The reaction was stopped by adding 2-propanol:heptane (12:1). Radioactive cholesteryl ester product was separated into the organic phase by adding heptane and 1M carbonate buffer pH 9.5. ACAT activity was quantified by counting aliquots of the upper heptane layer by liquid scintillography.
The selectivity of a compound to inhibit DGAT over inhibition of ACAT may be defined as the ratio of IC50 values generated in the DGAT and ACAT enzyme assays for a particular compound.

human DGAT1 = target: T1, human DGAT1 (Homo sapiens, UniProt O75907); assay: Human Enzyme Assay (DGAT1 activity, 14C oleoyl coenzyme A, insect cell membranes); type: biochemical; conditions: human DGAT1 expressed in sf9 insect cell membranes
T1 construct: made in house; host or cells: Sf9 insect cells, recombinant baculovirus; membrane fraction
T1 sequence (O75907 1-488): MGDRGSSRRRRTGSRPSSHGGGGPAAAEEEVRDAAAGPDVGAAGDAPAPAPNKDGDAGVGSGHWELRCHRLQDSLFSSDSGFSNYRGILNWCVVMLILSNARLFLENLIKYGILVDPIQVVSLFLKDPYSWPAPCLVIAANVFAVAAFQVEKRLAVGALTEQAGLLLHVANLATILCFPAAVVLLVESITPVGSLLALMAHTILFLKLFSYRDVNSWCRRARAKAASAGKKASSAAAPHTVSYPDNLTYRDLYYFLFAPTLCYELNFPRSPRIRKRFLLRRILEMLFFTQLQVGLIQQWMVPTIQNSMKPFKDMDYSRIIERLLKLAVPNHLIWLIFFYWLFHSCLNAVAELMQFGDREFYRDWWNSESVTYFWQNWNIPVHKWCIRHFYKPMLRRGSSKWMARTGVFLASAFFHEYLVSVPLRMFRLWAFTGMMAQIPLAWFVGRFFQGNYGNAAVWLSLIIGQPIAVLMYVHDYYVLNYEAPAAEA
Description: The in vitro assay to identify DGAT1 inhibitors uses human DGAT1 expressed in insect cell membranes as the enzyme source (Proc. Natl. Acad. Sci. 1998, 95, 13018-13023). Briefly, sf9 cells were infected with recombinant baculovirus containing human DGAT1 coding sequences and harvested after 48 h. Cells were lysed by sonication and membranes isolated by centrifuging at 28000 rpm for 1 h at 4° C. on a 41% sucrose gradient. The membrane fraction at the interphase was collected, washed, and stored in liquid nitrogen.
DGAT1 activity was assayed by a modification of the method described by Coleman (Methods in Enzymology 1992, 209, 98-102). Compound at 1-10 μM was incubated with 0.4 μg membrane protein, 5 mM MgCl2, and 100 μM 1,2 dioleoyl-sn-glycerol in a total assay volume of 200 μl in plastic tubes. The reaction was started by adding ^14C oleoyl coenzyme A (30 μM final concentration) and incubated at room temperature for 30 minutes. The reaction was stopped by adding 1.5 mL 2-propanol:heptane:water (80:20:2). Radioactive triolein product was separated into the organic phase by adding 1 mL heptane and 0.5 mL 0.1 M carbonate buffer pH 9.5. DGAT1 activity was quantified by counting aliquots of the upper heptane layer by liquid scintillography.

selectivity to inhibit DGAT over inhibition of ACAT (ratio of IC50 values in the DGAT and ACAT enzyme assays) (ACAT): 310 fold
IC50 (human DGAT1): 17 nM
SMILES: O=C(Nc1ccc(O[C@H]2CC[C@H](C(=O)O)CC2)cc1)c1nnc(Nc2ccc(F)cc2)o1 [Example 13, trans-4-{4-[({5-[(4-fluorophenyl)amino]-1,3,4-oxadiazol-2-yl}carbonyl)amino]phenoxy}cyclohexanecarboxylic acid]
